The source of these data is ChEMBL document CHEMBL3856226, “N-(2-Alkyleneimino-3-phenylpropyl)acetamide Compounds and Their Use against Pain and Pruritus via Inhibition of TRPA1 Channels” (ACS Med Chem Lett, 2016).

The target in the assay is Transient receptor potential cation channel subfamily A member 1 (Homo sapiens, UniProt O75762). As to the kind of experiment: Inhibition of cinnamaldehyde-activated full length human TRPA1 channel expressed in 293T-Rex cells monitored at 5 sec interval by manual patch clamp electrophysiological method. It counts as cell-based. On the technique in general: The patch-clamp technique gives a direct electrical read-out from membranes.
Chain of Transient receptor potential cation channel subfamily A member 1 (O75762 whole entry): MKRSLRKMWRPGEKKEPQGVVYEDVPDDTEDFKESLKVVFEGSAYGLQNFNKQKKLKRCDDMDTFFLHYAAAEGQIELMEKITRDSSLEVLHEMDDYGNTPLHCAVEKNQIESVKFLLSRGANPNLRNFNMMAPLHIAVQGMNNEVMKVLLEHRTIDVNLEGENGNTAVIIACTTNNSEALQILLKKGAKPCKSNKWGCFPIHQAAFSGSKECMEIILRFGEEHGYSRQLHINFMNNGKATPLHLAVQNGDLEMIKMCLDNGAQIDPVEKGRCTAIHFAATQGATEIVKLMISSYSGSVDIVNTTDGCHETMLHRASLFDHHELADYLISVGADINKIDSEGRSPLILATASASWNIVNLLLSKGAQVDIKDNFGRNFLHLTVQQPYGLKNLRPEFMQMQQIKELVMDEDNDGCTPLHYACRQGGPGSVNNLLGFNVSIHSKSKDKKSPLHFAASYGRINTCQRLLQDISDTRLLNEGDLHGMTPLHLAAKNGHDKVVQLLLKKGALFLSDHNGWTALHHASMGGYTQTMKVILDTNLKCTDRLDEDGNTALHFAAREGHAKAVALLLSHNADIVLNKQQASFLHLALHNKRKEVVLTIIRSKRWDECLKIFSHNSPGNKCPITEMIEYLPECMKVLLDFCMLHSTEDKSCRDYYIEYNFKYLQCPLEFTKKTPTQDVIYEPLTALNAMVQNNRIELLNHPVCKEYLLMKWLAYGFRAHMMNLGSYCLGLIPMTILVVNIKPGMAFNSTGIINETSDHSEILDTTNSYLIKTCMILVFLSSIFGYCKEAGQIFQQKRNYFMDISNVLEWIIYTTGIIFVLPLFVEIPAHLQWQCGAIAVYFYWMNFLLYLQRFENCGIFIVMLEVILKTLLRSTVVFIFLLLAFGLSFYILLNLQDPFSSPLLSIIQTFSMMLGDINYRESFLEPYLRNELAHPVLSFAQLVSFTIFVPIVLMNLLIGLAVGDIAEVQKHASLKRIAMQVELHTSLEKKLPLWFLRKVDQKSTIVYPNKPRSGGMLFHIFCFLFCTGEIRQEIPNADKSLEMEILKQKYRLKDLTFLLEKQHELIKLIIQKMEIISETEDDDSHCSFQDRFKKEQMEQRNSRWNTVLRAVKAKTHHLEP
One may read the IC50 as the concentration that gives 50% inhibition. Lower therefore signals greater potency. The compound `O=C(NCC(Cc1ccc(F)cc1)N1CCC(O)(C(F)(F)F)CC1)C1(c2ccc(Cl)cc2)CC1` (stereo not drawn) showed an IC50 of 2 nM. The value for `O=C(NCC(Cc1ccccc1)N1CCC(O)(C(F)(F)F)CC1)C1(c2ccc(Cl)cc2)CCCC1` (stereo not drawn) was 1 nM; that for `O=C(NCC(Cc1ccccc1)N1CCC(O)(C(F)(F)F)CC1)C1(c2ccc(Cl)cc2)CC1` (stereo not drawn) was 14 nM; that for `CC(C)(C(=O)NCC(Cc1ccccc1)N1CCC(O)(C(F)(F)F)CC1)c1ccccc1` (stereo not drawn) was 43 nM.

Compound `N#Cc1ccc(CC(CNC(=O)C2(c3ccc(Cl)cc3)CCCC2)N2CCC(O)(C(F)(F)F)CC2)cc1` (stereo not drawn) showed an IC50 of 63 nM. In turn, `O=C(NCC(Cc1ccccc1)N1CCC(C(F)(F)F)CC1)C1(c2ccc(Cl)cc2)CCCC1` (stereo not drawn) came in with an IC50 of 7 nM. The value for `O=C(NCC(Cc1ccccc1)N1CCC(O)(C(F)(F)F)CC1)C1(c2ccc(F)cc2)CCCCC1` (stereo not drawn) was 4 nM. Turning to `O=C(NCC(Cc1ccc(Br)cc1)N1CCC(O)(C(F)(F)F)CC1)C1(c2ccc(Cl)cc2)CCCC1` (stereo not drawn), 12 nM corresponded to half-maximal inhibition (IC50).
